Data reported in ChEMBL document CHEMBL5303711, “ECBD screening data for assay EOS300108” (2023).
Counter-ions that a name gives are not always drawn. Calls of active or inactive are those of the source. No rule for the calls is given here.

Assay: Cytotoxicity activity against human HepG2 cells assessed by CellTiter-Glo luminescent cell viability assay.
Format: toxicity, cell-based
Design: assay stage confirmatory assay, source tissue liver
Details: HepG2 cells, read-out: IC50 relative
With `CCOc1ccc(NC(=O)C2CCN(S(=O)(=O)c3ccc4c(c3)OCCCO4)CC2)cc1` the CC50 was 50 µM (inactive).
In the case of `C=CC(=O)Nc1ccc(CN(C(=O)Nc2c(Cl)c(OC)cc(OC)c2Cl)c2cc(Nc3ccc(N4CCN(C)CC4)cc3)ncn2)cc1`, the CC50 is reported as 4.7 µM (active).
With `CN(C)c1ccc(C(O)(c2ccc(N(C)C)cc2)c2ccc(N(C)C)cc2)cc1` [METHYLROSANILINE] the CC50 was 2 µM (active).
For `CCN(CC)C(=S)S` [DITIOCARB SODIUM], the CC50 was 6.6 µM (active).
For `O=S(=O)(c1cccs1)N1CCN(C[C@H](O)COc2cc(Cl)ccc2Cl)CC1`, the CC50 was 8.9 µM (active).
With `CS(=O)(=O)N1CCc2ccc(NC(=O)Nc3ccc(Cl)cc3)cc21` the CC50 was 3.9 µM (inactive).
In the case of `COc1cc(N2CCC(N)CC2)ccc1Nc1ncc(Cl)c(-c2c[nH]c3ccccc23)n1`, the CC50 is reported as 4.2 µM (active).
With `Cc1cc(C)cc(N2CCC(NCC3CCCNC3)CC2)c1` (centres undefined) the CC50 was 8.2 µM (active).
In the case of `NC(=O)c1cnc(NC(=O)c2cccc(S(=O)(=O)N3CCN(c4ccccc4)CC3)c2)s1`, the CC50 is reported as 37.1 µM (inactive).
With `CCc1onc(C)c1C1CCCN1Cc1ccc(OC)c(O)c1` (centres undefined) the CC50 was 6.1 µM (active).
With `COc1cc(N2CCN(C)CC2)ccc1Nc1nccc(-c2cn(C)c3cnccc23)n1` the CC50 was 4.4 µM (active).
For `CCCCOc1ccc(C(=O)CCN2CCCCC2)cc1` [DYCLONINE HYDROCHLORIDE], the CC50 was 9.9 µM (active).
In the case of `COc1ccc(C(=O)N[C@@H]2CN(Cc3ccccc3)C[C@H]2CN(C)C)cc1F`, the CC50 is reported as 12.1 µM (active).
In the case of `Cc1ccc([C@H](CC(=O)c2ccco2)SCCO)cc1`, the CC50 is reported as 11.4 µM (active).
For `Nc1c(C(=O)NCc2ccco2)c2nc3ccccc3nc2n1CCN1CCCCC1`, the CC50 was 8.9 µM (active).
In the case of `O=C(NCc1ccccc1)c1c(O)c2cccnc2n(Cc2ccccc2)c1=O`, the CC50 is reported as 6.9 µM (active).
With `CC(C)(C)c1nc(-c2cccc(NS(=O)(=O)c3c(F)cccc3F)c2F)c(-c2ccnc(N)n2)s1` [DABRAFENIB] the CC50 was 3.1 µM (active).
With `CN(C)c1ccc(C(=O)NCCCCCCC(=O)NO)cc1` the CC50 was 0.9 µM (active).
With `CCS(=O)(=O)N1CCc2ccc(NC(=O)Nc3cccc(Cl)c3)cc21` the CC50 was 2.6 µM (active).
With `CN(C)C/C=C/C(=O)Nc1cc2c(Nc3ccc(F)c(Cl)c3)ncnc2cc1O[C@H]1CCOC1` [AFATINIB DIMALEATE] the CC50 was 2.3 µM (active).
In the case of `Cn1cc(C2=C(c3cn(CCCSC(=N)N)c4ccccc34)C(=O)NC2=O)c2ccccc21`, the CC50 is reported as 1.4 µM (active).
In the case of `O=C(Nc1ccc([N+](=O)[O-])cc1Cl)c1cc(Cl)ccc1O` [NICLOSAMIDE], the CC50 is reported as 0.7 µM (active).
With `Cc1nn(-c2ccccc2)nc1C(=O)Nc1ccc(S(=O)(=O)NCCCN2CCOCC2)cc1` the CC50 was 10.3 µM (active).
In the case of `CN(C)C(=O)N[C@H]1CC[C@H](CCN2CCN(c3cccc(Cl)c3Cl)CC2)CC1` [CARIPRAZINE HYDROCHLORIDE], the CC50 is reported as 14.1 µM (active).
For `CN(C)CCN(CCCN)Cc1ccco1`, the CC50 was 12.3 µM (active).
For `c1ccc2c(-c3cnn4cc(-c5ccc(N6CCNCC6)cc5)cnc34)ccnc2c1`, the CC50 was 0.5 µM (active).
With `CN1CCCC(n2nc(Cc3ccc(Cl)cc3)c3ccccc3c2=O)CC1` (centres undefined) [AZELASTINE HYDROCHLORIDE] the CC50 was 10 µM (active).
For `O=C(CN1C(=O)COc2ccc(Cl)cc21)N1CCC(c2c[nH]c3ncccc23)CC1`, the CC50 was 8.8 µM (active).
For `Cc1ccc2c(c1)C1(CCN(CCc3nc(-c4ccccc4)oc3C)CC1)OC(=O)N2`, the CC50 was 11.2 µM (active).
For `Cc1cc(N2CCN([C@@H](C)c3nc(C(C)(C)C)no3)CC2)nc(C(C)C)n1`, the CC50 was 11.9 µM (active).
With `COc1ccc2c(c1)C=C(C(=O)NCc1ccc(OC)c(OC)c1)CO2` the CC50 was 6.3 µM (active).
In the case of `COc1cccc2c1C(=O)c1c(O)c3c(c(O)c1C2=O)C[C@@](O)(C(C)=O)C[C@@H]3O[C@H]1C[C@H](N)[C@H](O)[C@H](C)O1` [DAUNORUBICIN HYDROCHLORIDE], the CC50 is reported as 0.3 µM (active).
With `C=CC(=O)Nc1cccc(Oc2nc(Nc3ccc(N4CCN(C)CC4)c(F)c3)nc3[nH]ccc23)c1` the CC50 was 1.9 µM (active).
With `CC(C)c1cnc(NC(=O)N2CC3(CN(C)C(=O)O3)C2)s1` the CC50 was 12.7 µM (inactive).
In the case of `Cc1[nH]c2ccccc2c1CN1CCN(c2ccccn2)CC1`, the CC50 is reported as 12.9 µM (inactive).
With `O=C(Nc1nc(-c2ccc(S(=O)(=O)N3CCOCC3)cc2)cs1)c1cccs1` the CC50 was 5.3 µM (active).
With `OC1(CNCCSCc2cccc(Cl)c2)CCNC1` (centres undefined) the CC50 was 8.4 µM (active).
For `CNc1nc2c(=O)[nH]c(N)nc2n1[C@@H]1O[C@H](CO)[C@@H](O)[C@H]1O`, the CC50 was 11.4 µM (active).
For `C[C@H]1CN(CC(=O)Nc2nc3ccc(F)cc3s2)CCN1c1nccn2cnnc12`, the CC50 was 8 µM (active).
For `O=C(Nc1nc2ccccc2[nH]1)c1ccc(-n2cccn2)cc1`, the CC50 was 48.2 µM (inactive).
In the case of `NC(=S)N/N=C/c1ncccc1N` [TRIAPINE], the CC50 is reported as 5.3 µM (active).
In the case of `CC(C)[C@H](NC1CCN(C(=O)c2ccoc2)CC1)c1ccccc1`, the CC50 is reported as 10.7 µM (active).
In the case of `CCOc1ccccc1NC(=O)c1cnc2sc(N3CCOCC3)nn2c1=O`, the CC50 is reported as 15.6 µM (inactive).
With `Oc1cc2c(cc1C(c1ccc(C(F)(F)F)cc1)N1CCOCC1)OCO2` (centres undefined) the CC50 was 26 µM (inactive).
In the case of `CC(C)n1ncc2cc(NC(=O)c3ccc(=O)n(Cc4ccccc4)n3)cnc21`, the CC50 is reported as 9.2 µM (active).
With `COc1ccc(CN(Cc2cn3c(C)cccc3n2)C2CC2)c(OC)c1` the CC50 was 9.7 µM (active).
With `CCN1CCN(CCCNC(=O)c2cccc(NC(=O)c3nnc(COc4ccccc4)s3)c2)CC1` the CC50 was 6.9 µM (active).
In the case of `COc1cc(OC)c(OC)cc1CNC(=O)c1cccc2cccnc12`, the CC50 is reported as 12 µM (inactive).
For `NCC[C@H](N)C(=O)N1CCC2(CCC(=O)N(Cc3ccccc3)C2)CC1`, the CC50 was 11.5 µM (active).
In the case of `CC(C)Oc1cc(Nc2nc(N[C@@H](C)c3ccc(F)cn3)ncc2Cl)n[nH]1`, the CC50 is reported as 2.6 µM (active).
For `O=C(c1ccc(Cl)cc1)N(CCCc1ccccc1)CCS(=O)(=O)N1CCNCC1`, the CC50 was 10.2 µM (active).
With `CN(C)C[C@@H]1CCn2cc(c3ccccc32)C2=C(C(=O)NC2=O)c2cn(c3ccccc23)CCO1` the CC50 was 3 µM (active).
In the case of `O=[N+]([O-])c1ccc(-c2nc(-c3ccncc3)c(-c3ccc(F)cc3)[nH]2)cc1` [PD-169316], the CC50 is reported as 50 µM (inactive).
With `COc1cc2c(NC3CCN(CC4CCCCC4)CC3)nc(N3CCCN(C(C)C)CC3)nc2cc1OCCCN1CCCCC1` the CC50 was 1.1 µM (active).
With `CCN(CC)CCN(C(C)=O)c1nc2cc(C)cc(C)c2s1` the CC50 was 8.6 µM (active).
With `CN(Cc1ccccc1)C1=CC(=[N+]2CCCC2)CC(C)(C)C1` the CC50 was 3.3 µM (active).
In the case of `O=C(c1cccc2cnccc12)N1CCc2c(nc(-c3ccccc3)[nH]c2=O)C1`, the CC50 is reported as 1.5 µM (active).
For `COc1ccc(-c2ccc(CNCCCN3CCOCC3)o2)cc1Cl`, the CC50 was 12.7 µM (inactive).
For `Nc1ncc(-c2cnn(CCO)c2)c2scc(-c3ccc(NC(=O)Nc4cccc(F)c4)cc3)c12` [ILORASERTIB], the CC50 was 2.8 µM (active).
With `Cc1cccc2nc(C(=O)Nc3ccc(S(=O)(=O)Nc4nccs4)cc3)cn12` the CC50 was 1.4 µM (inactive).
With `Cc1noc(C2CN(C3CCCC3)CCCN2C(=O)c2ccccc2)n1` (centres undefined) the CC50 was 6.6 µM (active).
In the case of `CN[C@@H](C)C(=O)N[C@H](C(=O)N1CCC[C@H]1c1nc(C(=O)c2ccc(F)cc2)cs1)C1CCCCC1` [LCL-161], the CC50 is reported as 6.8 µM (active).
With `Nc1ncnc2c1ncn2[C@@H]1CC[C@@H](O)[C@H]1O` the CC50 was 1.6 µM (active).
In the case of `CC1(C)[C@H]2CC=C(CCNC(=O)C3CCN(C(=O)c4ccccn4)CC3)[C@@H]1C2`, the CC50 is reported as 4.5 µM (inactive).
